# In patent USRE35492E, “Wound treatment employing biologically active ion channel forming peptides and proteins” (Magainin Pharmaceuticals, Inc., priority 1994, dated 1997):
# No end group written: not given here.
# Key:
# wound healing = settings: cited from earlier work; for restoring connective tissue deposition / restoring wound contraction: antagonism of cortisone inhibition of wound healing
# [1] = system: wound healing in rats (sponge disc implants); test: Subcutaneous polyvinylchloride sponge disc implants in rats: collagen content and breaking strength; format: in vivo, rat
# Description: (§1) Twenty-two male rats weighing between 300 g and 325 g were anesthetized, after which their backs and abdomens were shaved and washed with 70% ethanol. Three modified polyvinylchloride sponge discs 2 mm thick and 15 mm in diameter were implanted in each rat abdominally in subcutaneous pockets made under the skin. Two of the implants were cut in half and rejoined before the implantation, and the remaining disc was sandwiched between two silicone discs which forced granulation tissue infiltration to occur from the periphery of the disc. A single 15 mm×15 mm square full excision wound was made on the back and the wound edges tattooed.
# (§2) The rats were then divided into four groups. A first, or control, group of four rats received sham injections daily. A second group of four rats received daily intramuscular injections of 10 mg of cortisone acetate. Cortisone is known to be an inhibitor of wound healing. A third group of seven rats received daily intramuscular injections of 0.3 mg of amide-terminated Magainin II. A fourth group of seven rats received daily intramuscular injections of 10 mg of cortisone acetate and 0.3 mg of Magainin II at separate sites. At seven days, rat weights were recorded, wound sizes measured, and the implants harvested. The staple which joined the two disc halves together was carefully removed and the breaking strength measured. Collagen content from the implant halves from each treatment group was measured by weighing the pepsin extracted native collagen. The sponge halves are homogenized in 0.5M ice-cold acetic acid containing 0.1 mg of pepsin per ml. The homogenate was stirred for 24 hours at 4° C., centrifuged, and supernatants saved. The native solubilized collagen was isolated by adding sodium chloride to 10% w/v. The salt precipitate was collected by centrifugation (10,000× g for 10 min.) and then taken up in 145 mM potassium phosphate buffer pH7.6, exhaustively dialyzed against 1 mM HCl, lyophilized and its dry weight recorded. Confirmation of collagen purity was made by SDS polyacrylamide gel electrophoresis. Pepsin digestion extracts only native collagen, needed for the formation of collagen fibers. The accumulations of collagen in the early stages of healing are responsible for gain in wound tensile strength. Collagen content from the implants taken from the group treated with cortisone acetate alone averaged 0.82 mg/sponge, as compared with 3.43 mg/sponge for the control group.
# The group treated with Magainin II alone has a average wound breaking strength of 415 g.
# [2] = system: full excision wound in rats; test: 15 mm×15 mm full excision wound on the back of rats: wound contraction; format: in vivo, rat; settings: for average wound contraction: seven days
# Description: as §1, §2
# [3] = substance alone, daily intramuscular injections (Magainin II 0.3 mg; cortisone acetate 10 mg), implants harvested at seven days, control group 3.43
molecule,measurement,setting,value
C[C@]12CCC(=O)C=C1CC[C@@H]1[C@@H]2C(=O)C[C@@]2(C)[C@H]1CC[C@]2(O)C(=O)CO [Cortisone],effect on wound healing,wound healing; known,inhibitor
"CC(=O)OCC(=O)[C@@]1(O)CC[C@H]2[C@@H]3CCC4=CC(=O)CC[C@]4(C)[C@H]3C(=O)C[C@@]21C [cortisone acetate, reference compound]",average collagen content of implants,[1]; [3],0.82 mg/sponge
GIGKFLHSAKKFGKAFVGEIMNS-NH2 [Magainin II],stimulating wound healing,[2]; rats,effective
same,cortisone inhibition of wound healing (collagen deposition and wound contraction),[2]; rats treated with cortisone acetate and Magainin II,antagonistic
same,average wound contraction,"[2]; rats, 0.3 mg Magainin II plus 10 mg cortisone acetate daily intramuscular at separate sites, cortisone acetate alone 28",53%
same,average wound contraction,"[2]; rats, substance alone, daily intramuscular injections (Magainin II 0.3 mg; cortisone acetate 10 mg), control group 67",65%
same,average collagen content of implants,"[1]; 0.3 mg Magainin II plus 10 mg cortisone acetate daily intramuscular at separate sites, seven days, cortisone acetate alone 0.82",3.20 mg/sponge
same,average wound breaking strength,"[1]; 0.3 mg Magainin II plus 10 mg cortisone acetate daily intramuscular at separate sites, seven days, cortisone acetate alone 195",320 g
same,average collagen content of implants,[1]; [3],3.82 mg/sponge
Vitamin A,restoring connective tissue deposition,wound healing,effective
same,restoring wound contraction,wound healing,ineffective
"growth hormone: other antagonist of cortisone inhibition, effective in restoring connective tissue deposition",restoring connective tissue deposition,wound healing,effective
same,restoring wound contraction,wound healing,ineffective
